These results are taken from US12338237B2, “Derivatives having 1,2,3,4-tetrahydronaphthalene moiety or pharmaceutically acceptable salt thereof and pharmaceutical compositions comprising the same” (YUHAN CORPORATION, priority 2019, dated 2025).

Like-named read-outs stand apart in the source and are kept apart here.

As a reminder, the IC50 is the concentration at which inhibition is half-maximal.

Assay [1] has as its target glucosylceramide synthase (GCS) (Homo sapiens (Human), UniProt Q16739). Briefly: Evaluation of inhibitory activities against GCS (enzyme reaction with A549 cell lysate, NBD C6-ceramide, HPLC fluorescence). Format: biochemical. Conditions: GCS activity in A549 cell lysate, 37° C. for 90 minutes. The gist of the method: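 Lysate of A549 cells in 50 mM HEPES pH 7.3 incubated with test compound and NBD C6-ceramide at 37 °C for 90 min; lipids extracted with chloroform/methanol and GlcCer and ceramide peaks quantified by HPLC fluorescence. Activity from GlcCer area fraction, normalised between DMSO and ibiglustat controls.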

The next assay concerns GM1 production. Briefly: cells. It counts as cell-based.

glucosylceramide synthase (GCS), sequence (Q16739 whole entry, looked up): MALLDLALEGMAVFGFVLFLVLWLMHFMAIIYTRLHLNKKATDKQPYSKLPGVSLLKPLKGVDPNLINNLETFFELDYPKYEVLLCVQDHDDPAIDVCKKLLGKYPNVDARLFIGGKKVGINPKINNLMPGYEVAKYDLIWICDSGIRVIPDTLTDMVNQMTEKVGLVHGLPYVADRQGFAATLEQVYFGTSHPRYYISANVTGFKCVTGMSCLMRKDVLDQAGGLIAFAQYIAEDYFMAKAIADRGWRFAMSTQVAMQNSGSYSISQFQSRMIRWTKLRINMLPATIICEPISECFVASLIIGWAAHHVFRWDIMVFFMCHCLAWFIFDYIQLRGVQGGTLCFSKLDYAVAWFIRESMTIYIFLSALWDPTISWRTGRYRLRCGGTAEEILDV

Turning to `COc1cccc(-c2ccc3c(c2)CCC(C)(C)C3NC(=O)O[C@@H]2CN3CCC2CC3)c1` (stereo partly drawn) [Example 121, (S)-quinuclidin-3-yl (6-(3-methoxyphenyl)-2,2-dimethyl-1,2,3,4-tetrahydronaphthalen-1-yl)carbamate], the IC50 in assay [1] turned out to be 5.51 nM; in the assay with GM1 production (Homo sapiens, Jurkat, 72 h) it was 0.0387 nM.

Take `COCCOc1ccc(-c2ccc3c(c2)CCC2(CC2)C3NC(=O)O[C@@H]2CN3CCC2CC3)cc1` (stereo partly drawn) [Example 194, (S)-quinuclidin-3-yl (6′-(4-(2-methoxyethoxy)phenyl)-3′,4′-dihydro-1′H-spiro[cyclopropane-1,2′-naphthalen]-1′-yl)carbamate]: the IC50 was determined as 1.03 nM in assay [1] and 7.92 nM in the assay on GM1 production (Homo sapiens, Jurkat, 72 h).

For the compound `COCOc1ccc(-c2ccc3c(c2)CCC(C)(C)C3NC(=O)O[C@@H]2CN3CCC2CC3)cc1` (stereo partly drawn) [Example 113, (S)-quinuclidin-3-yl (6-(4-(methoxymethoxy)phenyl)-2,2-dimethyl-1,2,3,4-tetrahydronaphthalen-1-yl)carbamate], the IC50 came out at 0.94 nM in assay [1] and 0.964 nM in the assay on GM1 production (Homo sapiens, Jurkat, 72 h).

Consider `CC1(C)CCc2cc(-c3cccc(C(F)F)c3)ccc2C1NC(=O)O[C@@H]1CN2CCC1CC2` (stereo partly drawn) [Example 130, (S)-quinuclidin-3-yl (6-(3-(difluoromethyl)phenyl)-2,2-dimethyl-1,2,3,4-tetrahydronaphthalen-1-yl)carbamate], for which the IC50 is 1.24 nM in assay [1] and 1.3 nM in the assay on GM1 production (Homo sapiens, Jurkat, 72 h).

Take `CC(C)Oc1ccc(-c2ccc3c(c2)CCC2(CC2)C3NC(=O)O[C@@H]2CN3CCC2CC3)cc1` (stereo partly drawn) [Example 219, (S)-quinuclidin-3-yl (6′-(4-isopropoxyphenyl)-3′,4′-dihydro-1′H-spiro[cyclopropane-1,2′-naphthalen]-1′-yl)carbamate]: the IC50 is 1.1 nM in assay [1] and 16 nM in the assay on GM1 production (Homo sapiens, Jurkat, 72 h).

As for `CC(C)c1ccc(-c2ccc3c(c2)CCCC3NC(=O)O[C@@H]2CN3CCC2CC3)cc1` (stereo partly drawn) [Example 34, (S)-quinuclidin-3-yl (6-(4-isopropylphenyl)-1,2,3,4-tetrahydronaphthalen-1-yl)carbamate], the IC50 amounted to 6.1 nM in assay [1] and 298 nM with GM1 production (Homo sapiens, Jurkat, 72 h).

In the case of `O=C(NC1c2ccc(-c3cccc(Cl)c3)cc2CCC12CC2)O[C@@H]1CN2CCC1CC2` (stereo partly drawn) [Example 191, (S)-quinuclidin-3-yl (6′-(3-chlorophenyl)-3′,4′-dihydro-1′H-spiro[cyclopropane-1,2′-naphthalen]-1′-yl)carbamate], the IC50 was 9.9 nM in assay [1] and 14.4 nM with GM1 production (Homo sapiens, Jurkat, 72 h).

With `COc1cc(OC)cc(-c2ccc3c(c2)CCC(C)(C)C3NC(=O)O[C@@H]2CN3CCC2CC3)c1` (stereo partly drawn) [Example 138, (S)-quinuclidin-3-yl (6-(3,5-dimethoxyphenyl)-2,2-dimethyl-1,2,3,4-tetrahydronaphthalen-1-yl)carbamate], the IC50 in assay [1] turned out to be 1.19 nM; with GM1 production (Homo sapiens, Jurkat, 72 h), 3.8 nM.

Turning to `O=C(NC1c2cc(-c3ccc(Cl)cc3)ccc2CCC12CC2)O[C@@H]1CN2CCC1CC2` (stereo partly drawn) [Example 172, (S)-quinuclidin-3-yl (7′-(4-chlorophenyl)-3′,4′-dihydro-1′H-spiro[cyclopropane-1,2′-naphthalen]-1′-yl)carbamate], the IC50 in assay [1] amounted to 4.83 nM; in the assay on GM1 production (Homo sapiens, Jurkat, 72 h), 67.9 nM.

Consider `O=C(NC1CCCc2ccc(-c3ccccc3F)cc21)O[C@@H]1CN2CCC1CC2` (stereo partly drawn) [Example 61], for which the IC50 in assay [1] amounted to 8.48 nM; in the assay with GM1 production (read-out: IC50), 61.9 nM.

For the compound `CC1(C)CCc2ccc(-c3cccc(OC(F)(F)F)c3)cc2C1NC(=O)O[C@@H]1CN2CCC1CC2` (stereo partly drawn) [Example 158, (S)-quinuclidin-3-yl (2,2-dimethyl-7-(3-(trifluoromethoxy)phenyl)-1,2,3,4-tetrahydronaphthalen-1-yl)carbamate], the IC50 came out at 34.2 nM in assay [1] and 249 nM in the assay on GM1 production (Homo sapiens, Jurkat, 72 h).

On to `O=C(NC1CCCc2cc(-c3cc(F)cc(F)c3)ccc21)O[C@@H]1CN2CCC1CC2` (stereo partly drawn) [Example 17, (S)-quinuclidin-3-yl (6-(3,5-difluorophenyl)-1,2,3,4-tetrahydronaphthalen-1-yl)carbamate], for which the half-inhibitory concentration (IC50) in assay [1] was determined as 5.75 nM; with GM1 production (Homo sapiens, Jurkat, 72 h) it was 37 nM.

In the case of `COc1ccc(-c2ccc3c(c2)CCC(C)(C)C3NC(=O)O[C@@H]2CN3CCC2CC3)cc1Cl` (stereo partly drawn) [Example 139, (S)-quinuclidin-3-yl (6-(3-chloro-4-methoxyphenyl)-2,2-dimethyl-1,2,3,4-tetrahydronaphthalen-1-yl)carbamate], the IC50 is 4.78 nM in assay [1] and 8.8 nM with GM1 production (Homo sapiens, Jurkat, 72 h).

In the case of `CCOc1ccc(-c2ccc3c(c2)CCC(C)(C)C3NC(=O)O[C@@H]2CN3CCC2CC3)cc1F` (stereo partly drawn) [Example 144, (S)-quinuclidin-3-yl (6-(4-ethoxy-3-fluorophenyl)-2,2-dimethyl-1,2,3,4-tetrahydronaphthalen-1-yl)carbamate], the IC50 came to 1.39 nM in assay [1] and 1.6 nM with GM1 production (Homo sapiens, Jurkat, 72 h).

As for “(S)-quinuclidin-3-yl (7-(3-(chlorophenyl)-1,2,3,4-tetrahydronaphthalen-1-yl)carbamate [Example 59]”, the IC50 in assay [1] turned out to be 18.9 nM; in the assay with GM1 production (read-out: IC50), 153 nM.

Consider `CC1(C)CCc2cc(-c3cc(F)c(F)cc3F)ccc2C1NC(=O)O[C@@H]1CN2CCC1CC2` (stereo partly drawn) [Example 108, (S)-quinuclidin-3-yl (2,2-dimethyl-6-(2,4,5-trifluorophenyl)-1,2,3,4-tetrahydronaphthalen-1-yl)carbamate], for which the IC50 in assay [1] amounted to 2.55 nM; in the assay with GM1 production (Homo sapiens, Jurkat, 72 h), 6.7 nM.

For `COCOc1cccc(-c2ccc3c(c2)CCC(C)(C)C3NC(=O)O[C@@H]2CN3CCC2CC3)c1` (stereo partly drawn) [Example 114, (S)-quinuclidin-3-yl (6-(3-(methoxymethoxy)phenyl)-2,2-dimethyl-1,2,3,4-tetrahydronaphthalen-1-yl)carbamate], the IC50 in assay [1] came to 1.8 nM; in the assay on GM1 production (Homo sapiens, Jurkat, 72 h) it was 1.27 nM.

Regarding `COc1cc2c(cc1-c1ccc(CC(C)C)cc1)CCC(C)(C)C2NC(=O)O[C@@H]1CN2CCC1CC2` (stereo partly drawn) [Example 236, (S)-quinuclidin-3-yl (6-(4-isobutylphenyl)-7-methoxy-2,2-dimethyl-1,2,3,4-tetrahydronaphthalen-1-yl)carbamate], the IC50 in assay [1] stood at 0.53 nM; with GM1 production (Homo sapiens, Jurkat, 72 h), 3.2 nM.

With `O=C(NC1CCCc2cc(-c3cc(F)c(F)cc3F)ccc21)O[C@@H]1CN2CCC1CC2` (stereo partly drawn) [Example 21, (S)-quinuclidin-3-yl (6-(2,4,5-trifluorophenyl)-1,2,3,4-tetrahydronaphthalen-1-yl)carbamate], the IC50 stood at 2.53 nM in assay [1] and 42.1 nM in the assay on GM1 production (Homo sapiens, Jurkat, 72 h).

Consider `O=C(NC1CCCc2ccc(-c3ccc(F)c(F)c3)cc21)O[C@@H]1CN2CCC1CC2` (stereo partly drawn) [Example 64, (S)-quinuclidin-3-yl (7-(3,4-difluorophenyl)-1,2,3,4-tetrahydronaphthalen-1-yl)carbamate], for which the IC50 in assay [1] amounted to 13 nM; in the assay with GM1 production (Homo sapiens, Jurkat, 72 h), 131 nM.

In the case of `O=C(NC1CCCc2cc(-c3cccc(F)c3F)ccc21)O[C@@H]1CN2CCC1CC2` (stereo partly drawn) [Example 19, (S)-quinuclidin-3-yl (6-(2,3-difluorophenyl)-1,2,3,4-tetrahydronaphthalen-1-yl)carbamate], the IC50 in assay [1] was found to be 3.44 nM; in the assay with GM1 production (Homo sapiens, Jurkat, 72 h), 67.4 nM.

Take `CCCOc1ccc(-c2ccc3c(c2)CCC2(CC2)C3NC(=O)O[C@@H]2CN3CCC2CC3)cc1` (stereo partly drawn) [Example 220, (S)-quinuclidin-3-yl (6′-(4-propoxyphenyl)-3′,4′-dihydro-1′H-spiro[cyclopropane-1,2′-naphthalen]-1′-yl) carbamate]: the values for the IC50 (in assay [1]; with GM1 production (read-out: IC50)) were 0.63 nM and 6.7 nM, respectively.

On to `O=C(NC1CCCc2cc(-c3cccc(OC(F)(F)F)c3)ccc21)O[C@@H]1CN2CCC1CC2` (stereo partly drawn) [Example 8, (S)-quinuclidin-3-yl (6-(3-(trifluoromethoxy)phenyl)-1,2,3,4-tetrahydronaphthalen-1-yl)carbamate], for which the IC50 in assay [1] turned out to be 2.1 nM; with GM1 production (Homo sapiens, Jurkat, 72 h) it was 12.4 nM.

As to `O=C(NC1CCCc2cc(-c3ccncc3F)ccc21)O[C@@H]1CN2CCC1CC2` (stereo partly drawn) [Example 49, (S)-quinuclidin-3-yl (6-(3-fluoropyridin-4-yl)-1,2,3,4-tetrahydronaphthalen-1-yl)carbamate], the IC50 turned out to be 35 nM in assay [1] and 412 nM in the assay on GM1 production (Homo sapiens, Jurkat, 72 h).

As for `COc1cccc(-c2ccc3c(c2)CCCC3NC(=O)O[C@@H]2CN3CCC2CC3)c1` (stereo partly drawn) [Example 47, (S)-quinuclidin-3-yl (6-(3-methoxyphenyl)-1,2,3,4-tetrahydronaphthalen-1-yl)carbamate], the IC50 turned out to be 2.52 nM in assay [1] and 433 nM in the assay with GM1 production (Homo sapiens, Jurkat, 72 h).

As for `O=C(NC1CCCc2cc(-c3ccc(F)cc3)ccc21)O[C@@H]1CN2CCC1CC2` (stereo partly drawn) [Example 1, (S)-quinuclidin-3-yl (6-(4-fluorophenyl)-1,2,3,4-tetrahydronaphthalen-1-yl)carbamate], the IC50 is 6.78 nM in assay [1] and 62.6 nM with GM1 production (Homo sapiens, Jurkat, 72 h).

For `CC1(C)CCc2cc(-c3cccc(C(F)(F)F)c3)ccc2C1NC(=O)O[C@@H]1CN2CCC1CC2` (stereo partly drawn) [Example 92, (S)-quinuclidin-3-yl (2,2-dimethyl-6-(3-(trifluoromethyl)phenyl)-1,2,3,4-tetrahydronaphthalen-1-yl)carbamate], the 50% inhibitory concentration (IC50) came to 1.04 nM in assay [1] and 2.72 nM in the assay on GM1 production (Homo sapiens, Jurkat, 72 h).

On to `COc1cccc(OC)c1-c1ccc2c(c1)CCC1(CC1)C2NC(=O)O[C@@H]1CN2CCC1CC2` (stereo partly drawn) [Example 212, (S)-quinuclidin-3-yl (6′-(2,6-dimethoxyphenyl)-3′,4′-dihydro-1′H-spiro[cyclopropane-1,2′-naphthalen]-1′-yl)carbamate], for which the IC50 in assay [1] came to 104 nM; with GM1 production (Homo sapiens, Jurkat, 72 h) it was 221 nM.

Consider `COc1ccc(-c2ccc3c(c2)CCC(C)(C)C3NC(=O)O[C@@H]2CN3CCC2CC3)cc1OC` (stereo partly drawn) [Example 137, (S)-quinuclidin-3-yl (6-(3,4-dimethoxyphenyl)-2,2-dimethyl-1,2,3,4-tetrahydronaphthalen-1-yl)carbamate], for which the IC50 in assay [1] is 2.14 nM; in the assay on GM1 production (Homo sapiens, Jurkat, 72 h), 8.4 nM.

Regarding `CC1(C)CCc2ccc(-c3cccc(C(F)(F)F)c3)cc2C1NC(=O)O[C@@H]1CN2CCC1CC2` (stereo partly drawn) [Example 157, (S)-quinuclidin-3-yl (2,2-dimethyl-7-(3-(trifluoromethyl)phenyl)-1,2,3,4-tetrahydronaphthalen-1-yl)carbamate], the IC50 in assay [1] was 32.2 nM; with GM1 production (Homo sapiens, Jurkat, 72 h), 120 nM.
